Results from patent US10308916B2, “Omega-transaminase mutants with activity improvements toward ketones and methods for producing optically pure amines” (Industry-Academic Cooperation Foundation, Yonsei University, priority 2015, dated 2019).
Values joined by “and” are separate entries in the source; they are usually repeats but may differ in a detail not shown here. Equal values may be shown once. Read-outs that look alike come from different tables or passages of the source.

How the values were obtained:
Assay type in all cases: biochemical
OATA W58L [1] = conditions: pH 7
OATA W58M = conditions: pH 7
OATA W58I = conditions: pH 7
OATA W58V = conditions: pH 7
OATA W58A [2] = conditions: pH 7
OATA L57C/W58L/I261A [3] = system: OATA L57C/W58L/I261A
OATA L57A/W58A/V154A [4] = system: OATA L57A/W58A/V154A
OATA L57A/W58A [5] = system: OATA L57A/W58A
OATA W58A [6] = system: OATA W58A
OATA L57A [7] = system: OATA L57A
OATA L57A [8] = system: OATA L57A; remark: listed apart in the source
OATA L57A/W58A/V154A [9] = system: OATA L57A/W58A/V154A; remark: listed apart in the source
OATA L57A/W58A [10] = system: OATA L57A/W58A; remark: listed apart in the source
OATA W58L [11] = system: OATA W58L
OATA L57A/W58A/V154A [12] = system: OATA L57A/W58A/V154A; remark: listed apart in the source
OATA L57A/W58A [13] = system: OATA L57A/W58A; remark: listed apart in the source
OATA W58A [14] = system: OATA W58A; remark: listed apart in the source
OATA W58A [15] = system: OATA W58A; remark: listed apart in the source
OATA W58L [16] = system: OATA W58L; remark: listed apart in the source
OATA W58L [17] = system: OATA W58L; remark: listed apart in the source
OATA W58L [18] = system: OATA W58L; remark: listed apart in the source
OATA W58D/I261A = system: OATA W58D/I261A
OATA L57Q/W58N/I261L = system: OATA L57Q/W58N/I261L
OATA L57C/W58L/I261A [19] = system: OATA L57C/W58L/I261A; remark: listed apart in the source

Compound | Relative activity to acetophenone, OATA W58L (OATA W58L [1]) | Relative activity to acetophenone, OATA W58M (OATA W58M) | Relative activity to acetophenone, OATA W58I (OATA W58I) | Relative activity to acetophenone, OATA W58V (OATA W58V) | Relative activity to acetophenone, OATA W58A (OATA W58A [2]) | also measured
CC(=O)C(C)C [Ketone 1m, 3-methyl 2-butanone] | 78% | 29% | 26% | 29% | 21% | –
O=C1CCCc2ccccc21 [Ketone 1h, α-tetralone] | 0.7% | 17% | 16% | 12% | 19% | Relative activity, OATA L57C/W58L/I261A (OATA L57C/W58L/I261A [3]): 243%
CCCC(=O)c1ccccc1 [Ketone 1c, butyrophenone] | >0.1%^ | 15% | 11% | 12% | 8% | Relative activity, OATA L57A/W58A/V154A (OATA L57A/W58A/V154A [4]): 747%; Relative activity, OATA L57A/W58A (OATA L57A/W58A [5]): 302%; fold increase in amination activity compared to OATA W58A (OATA L57A/W58A [5]): > 30 and 38; Relative activity, OATA W58A (OATA W58A [6]): 8%; Relative activity, OATA L57A (OATA L57A [7]): 1%
CCCC(=O)C(=O)O [2-oxopentanoic acid] | – | – | – | – | – | Relative activity, OATA L57A (OATA L57A [8]): 40%; Relative activity, OATA L57A/W58A/V154A (OATA L57A/W58A/V154A [9]): 206%; Relative activity, OATA L57A/W58A (OATA L57A/W58A [10]): 103%
1-acetonaphthone [Ketone 1i] | 47% | – | – | – | – | Conversion (%) OATAW58L (OATA W58L [11]): 75%
CC(C)C(N)c1ccccc1 (racemic) [2-Methyl-1-phenylpropan-1-amine] | – | – | – | – | – | Relative activity, OATA L57A/W58A/V154A (OATA L57A/W58A/V154A [12]): 167%; Relative activity, OATA L57A/W58A (OATA L57A/W58A [13]): 12%; Relative reactivity, OATA W58A (OATA W58A [14]): 3%; relative activity to (S)-α-MBA measured with OATA WT, OATA W58A (OATA W58A [15]): 6%; Relative reactivity, OATA W58L (OATA W58L [16]): 2%
CC(=O)c1ccc(C)cc1 [Ketone 1d, 4-methylacetophenone] | 51% | 68% | 74% | 52% | 56% | Relative activity, OATA L57C/W58L/I261A (OATA L57C/W58L/I261A [3]): 1,096%; Conversion (%) OATAW58L (OATA W58L [11]): 91%
O=C1CCCc2ccccc21 [Ketone 1h] | – | – | – | – | – | Fold-increase (OATA W58L [17]): >210
O=C1CCc2ccccc21 [Ketone 1g] | – | – | – | – | – | Fold-increase (OATA W58L [17]): >760
C[C@H](N)c1cccc2ccccc12 [(S)-1-(1-naphthyl)ethylamine] | – | – | – | – | – | Relative activity, OATA L57A/W58A/V154A (OATA L57A/W58A/V154A [12]): 60%; Relative activity, OATA L57A/W58A (OATA L57A/W58A [13]): 18%; Relative reactivity, OATA W58A (OATA W58A [14]): 0.7%; Relative reactivity, OATA W58L (OATA W58L [16]): 2%
O=C1CCc2ccccc21 [Ketone 1g, 1-indanone] | 2% | 20% | 16% | 17% | 15% | Relative activity, OATA L57C/W58L/I261A (OATA L57C/W58L/I261A [3]): 609%; Relative activity, OATA L57A (OATA L57A [7]): 0.6%
C[C@H](N)c1ccccc1 [(S)-α-methylbenzylamine] | – | – | – | – | – | Relative activity, OATA L57A/W58A/V154A (OATA L57A/W58A/V154A [12]): 1,190%^; Fold-increase in kcat/KM (OATA W58L [18]): 170; fold decrease in KM (tighter binding) (OATA W58L [18]): 207; Relative activity, OATA W58D/I261A (OATA W58D/I261A): 17%; Relative activity, OATA L57A/W58A (OATA L57A/W58A [13]): 621%; Relative activity, OATA L57Q/W58N/I261L (OATA L57Q/W58N/I261L): 262%; Relative reactivity, OATA W58A (OATA W58A [14]): 100%; Relative reactivity, OATA W58L (OATA W58L [16]): 100%; Relative activity, OATA L57C/W58L/I261A (OATA L57C/W58L/I261A [19]): 900%
CCC(C)=O [Ketone 2-butanone, 2-butanone] | 78% | 25% | 20% | 17% | 16% | –
CC(=O)CC(C)C [Ketone 1n, 4-methyl-2-pentanone] | 61% | 38% | 41% | 35% | 46% | –
